Assay results taken from US20170190671A1, “BIS(ARYL)CATECHOL DERIVATIVES AS HERBICIDES” (E I DU PONT DE NEMOURS AND COMPANY, priority 2014, published 2017).

Assays:
Experiment in all cases: Test C postemergence
Type in all cases: in vivo
[1] = tested on: corn (Zea mays); details: Zea mays, post-emergence, 336 h, Postemergence, scale 0 to 100
Method in brief: (§1)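 Seeds sown in a loam soil and sand blend were treated preemergence; plants in peat-moss/vermiculite medium were sprayed at the 1- to 4-leaf stage (2-18 cm). Chemicals were in a non-phytotoxic surfactant-containing solvent. After 13 to 15 days in a greenhouse, injury was visually rated against controls on a 0-100 scale.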

[2] = tested on: oilseed rape (Brassica napus); details: Brassica napus, post-emergence, Postemergence, scale 0 to 100, read-out: Plant response rating, Oilseed Rape
Method in brief: as §1

[3] = tested on: winter wheat (Triticum aestivum); details: Triticum aestivum, post-emergence, 336 h, Postemergence, scale 0 to 100, read-out: Plant response rating, Wheat
Method in brief: as §1

[4] = tested on: ragweed (common ragweed, Ambrosia elatior); details: Ambrosia artemisiifolia, post-emergence, 336 h, Postemergence, scale 0 to 100, read-out: Plant response rating, Ragweed
Method in brief: as §1

[5] = tested on: velvetleaf (Abutilon theophrasti); details: Abutilon theophrasti, post-emergence, Postemergence, scale 0 to 100, read-out: Plant response rating, Velvetleaf
Method in brief: as §1

[6] = tested on: giant foxtail (Setaria faberii); details: Setaria faberi, post-emergence, 336 h, Postemergence, scale 0 to 100, read-out: Plant response rating, Foxtail, Giant
Method in brief: as §1

[7] = tested on: pigweed (Amaranthus retroflexus); details: Amaranthus retroflexus, post-emergence, 336 h, Postemergence, scale 0 to 100, read-out: Plant response rating, Pigweed
Method in brief: as §1

[8] = tested on: lambsquarters (Chenopodium album); details: Chenopodium album, post-emergence, 336 h, Postemergence, scale 0 to 100, read-out: Plant response rating, Lambsquarters
Method in brief: as §1

[9] = tested on: Italian ryegrass (Lolium multiflorum); details: Lolium multiflorum, post-emergence, 336 h, Postemergence, scale 0 to 100, read-out: Plant response rating, Ryegrass, Italian
Method in brief: as §1

[10] = tested on: blackgrass (Alopecurus myosuroides); details: Alopecurus myosuroides, post-emergence, 336 h, Postemergence, scale 0 to 100, read-out: Plant response rating, Blackgrass
Method in brief: as §1

[11] = tested on: johnsongrass (Sorghum halepense); details: Sorghum halepense, post-emergence, 336 h, Postemergence, scale 0 to 100, read-out: Plant response rating, Johnsongrass
Method in brief: as §1

[12] = tested on: barnyardgrass (Echinochloa crus-galli); details: Echinochloa crus-galli, post-emergence, Postemergence, scale 0 to 100, read-out: Plant response rating, Barnyardgrass
Method in brief: as §1

[13] = tested on: galium (catchweed bedstraw, Galium aparine); details: Galium, post-emergence, 336 h, Postemergence, scale 0 to 100, read-out: Plant response rating, Galium
Method in brief: as §1

[14] = tested on: chickweed (common chickweed, Stellaria media); details: Stellaria media, post-emergence, Postemergence, scale 0 to 100, read-out: Plant response rating, Chickweed
Method in brief: as §1

[15] = tested on: large (Lg) crabgrass (Digitaria sanguinalis); details: Digitaria sanguinalis, post-emergence, 336 h, Postemergence, scale 0 to 100, read-out: Plant response rating, Crabgrass, Large
Method in brief: as §1

[16] = tested on: soybean (Glycine max); details: Glycine max, post-emergence, Postemergence, scale 0 to 100, read-out: Plant response rating, Soybean
Method in brief: as §1

[17] = tested on: yellow nutsedge (Cyperus esculentus); details: Cyperus, post-emergence, 336 h, Postemergence, scale 0 to 100, read-out: Plant response rating, Nutsedge, Yellow
Method in brief: as §1

[18] = tested on: morningglory (Ipomoea coccinea); details: Ipomoea, post-emergence, 336 h, Postemergence, scale 0 to 100, read-out: Plant response rating, Morningglory
Method in brief: as §1

**Q.** With `N#Cc1cccc(Oc2ncc(Cl)cn2)c1Oc1ccc(Cl)cc1` [Compound 36] as the compound, how does the Corn plant response rating (crop injury, 0 = no effect, 100 = complete kill) at 16 g/ha ([1]; 16 g ai/ha) read?
**A.** 10%

**Q.** And the Corn plant response rating (crop injury, 0 = no effect, 100 = complete kill) at 31 g/ha ([1]; 31 g ai/ha)?
**A.** 15%

**Q.** What about the Corn plant response rating (crop injury, 0 = no effect, 100 = complete kill) at 62 g/ha ([1]; 62 g ai/ha) of the same compound?
**A.** 20%

**Q.** And the Corn plant response rating (crop injury, 0 = no effect, 100 = complete kill) at 125 g/ha ([1]; 125 g ai/ha)?
**A.** 20%

**Q.** And the plant injury at 31 g/ha ([2]; 31 g ai/ha)?
**A.** 85%

**Q.** And the plant injury at 62 g/ha ([2]; 62 g ai/ha)?
**A.** 90%

**Q.** What about the plant injury at 125 g/ha ([2]; 125 g ai/ha) of the same compound?
**A.** 98%

**Q.** And the plant injury at 31 g/ha ([3]; 31 g ai/ha)?
**A.** 0%

**Q.** What about the plant injury at 62 g/ha ([3]; 62 g ai/ha) of the same compound?
**A.** 0%

**Q.** What about the plant injury at 125 g/ha ([3]; 125 g ai/ha) of the same compound?
**A.** 5%

**Q.** And the pest or weed control at 31 g/ha ([4]; 31 g ai/ha)?
**A.** 45%

**Q.** What about the pest or weed control at 62 g/ha ([4]; 62 g ai/ha) of the same compound?
**A.** 40%

**Q.** What about the pest or weed control at 125 g/ha ([4]; 125 g ai/ha) of the same compound?
**A.** 75%

**Q.** And the pest or weed control at 31 g/ha ([5]; 31 g ai/ha)?
**A.** 45%

**Q.** And the pest or weed control at 62 g/ha ([5]; 62 g ai/ha)?
**A.** 70%

**Q.** And the pest or weed control at 125 g/ha ([5]; 125 g ai/ha)?
**A.** 80%

**Q.** What about the pest or weed control at 16 g/ha ([6]; 16 g ai/ha) of the same compound?
**A.** 5%

**Q.** What about the pest or weed control at 31 g/ha ([6]; 31 g ai/ha) of the same compound?
**A.** 5%

**Q.** What about the pest or weed control at 62 g/ha ([6]; 62 g ai/ha) of the same compound?
**A.** 10%

**Q.** What about the pest or weed control at 125 g/ha ([6]; 125 g ai/ha) of the same compound?
**A.** 10%

**Q.** And the pest or weed control at 31 g/ha ([7]; 31 g ai/ha)?
**A.** 90%

**Q.** And the pest or weed control at 62 g/ha ([7]; 62 g ai/ha)?
**A.** 98%

**Q.** What about the pest or weed control at 125 g/ha ([7]; 125 g ai/ha) of the same compound?
**A.** 100%

**Q.** And the pest or weed control at 16 g/ha ([8]; 16 g ai/ha)?
**A.** 90%

**Q.** What about the pest or weed control at 31 g/ha ([8]; 31 g ai/ha) of the same compound?
**A.** 95%

**Q.** What about the pest or weed control at 62 g/ha ([8]; 62 g ai/ha) of the same compound?
**A.** 98%

**Q.** What about the pest or weed control at 125 g/ha ([8]; 125 g ai/ha) of the same compound?
**A.** 100%

**Q.** And the pest or weed control at 31 g/ha ([9]; 31 g ai/ha)?
**A.** 5%

**Q.** And the pest or weed control at 62 g/ha ([9]; 62 g ai/ha)?
**A.** 10%

**Q.** What about the pest or weed control at 125 g/ha ([9]; 125 g ai/ha) of the same compound?
**A.** 30%

**Q.** What about the pest or weed control at 16 g/ha ([10]; 16 g ai/ha) of the same compound?
**A.** 5%

**Q.** What about the pest or weed control at 31 g/ha ([10]; 31 g ai/ha) of the same compound?
**A.** 5%

**Q.** What about the pest or weed control at 62 g/ha ([10]; 62 g ai/ha) of the same compound?
**A.** 30%

**Q.** What about the pest or weed control at 125 g/ha ([10]; 125 g ai/ha) of the same compound?
**A.** 30%

**Q.** What about the pest or weed control at 16 g/ha ([11]; 16 g ai/ha) of the same compound?
**A.** 20%

**Q.** And the pest or weed control at 31 g/ha ([11]; 31 g ai/ha)?
**A.** 30%

**Q.** And the pest or weed control at 62 g/ha ([11]; 62 g ai/ha)?
**A.** 35%

**Q.** What about the pest or weed control at 125 g/ha ([11]; 125 g ai/ha) of the same compound?
**A.** 35%

**Q.** What about the pest or weed control at 16 g/ha ([12]; 16 g ai/ha) of the same compound?
**A.** 10%

**Q.** And the pest or weed control at 31 g/ha ([12]; 31 g ai/ha)?
**A.** 10%

**Q.** And the pest or weed control at 62 g/ha ([12]; 62 g ai/ha)?
**A.** 15%

**Q.** And the pest or weed control at 125 g/ha ([12]; 125 g ai/ha)?
**A.** 20%

**Q.** And the pest or weed control at 16 g/ha ([13]; 16 g ai/ha)?
**A.** 80%

**Q.** What about the pest or weed control at 31 g/ha ([13]; 31 g ai/ha) of the same compound?
**A.** 80%

**Q.** What about the pest or weed control at 62 g/ha ([13]; 62 g ai/ha) of the same compound?
**A.** 95%

**Q.** What about the pest or weed control at 125 g/ha ([13]; 125 g ai/ha) of the same compound?
**A.** 95%

**Q.** And the pest or weed control at 16 g/ha ([14]; 16 g ai/ha)?
**A.** 70%

**Q.** And the pest or weed control at 31 g/ha ([14]; 31 g ai/ha)?
**A.** 75%

**Q.** What about the pest or weed control at 62 g/ha ([14]; 62 g ai/ha) of the same compound?
**A.** 80%

**Q.** What about the pest or weed control at 125 g/ha ([14]; 125 g ai/ha) of the same compound?
**A.** 100%

**Q.** What about the pest or weed control at 16 g/ha ([15]; 16 g ai/ha) of the same compound?
**A.** 5%

**Q.** And the pest or weed control at 31 g/ha ([15]; 31 g ai/ha)?
**A.** 10%

**Q.** And the pest or weed control at 62 g/ha ([15]; 62 g ai/ha)?
**A.** 10%

**Q.** What about the pest or weed control at 125 g/ha ([15]; 125 g ai/ha) of the same compound?
**A.** 20%

**Q.** And the plant injury at 31 g/ha ([16]; 31 g ai/ha)?
**A.** 25%

**Q.** And the plant injury at 62 g/ha ([16]; 62 g ai/ha)?
**A.** 50%

**Q.** And the plant injury at 125 g/ha ([16]; 125 g ai/ha)?
**A.** 45%

**Q.** And the pest or weed control at 31 g/ha ([17]; 31 g ai/ha)?
**A.** 5%

**Q.** And the pest or weed control at 62 g/ha ([17]; 62 g ai/ha)?
**A.** 10%

**Q.** What about the pest or weed control at 125 g/ha ([17]; 125 g ai/ha) of the same compound?
**A.** 15%

**Q.** What about the pest or weed control at 31 g/ha ([18]; 31 g ai/ha) of the same compound?
**A.** 60%

**Q.** What about the pest or weed control at 62 g/ha ([18]; 62 g ai/ha) of the same compound?
**A.** 65%

**Q.** And the pest or weed control at 125 g/ha ([18]; 125 g ai/ha)?
**A.** 70%
